Results: article PMC10287695, “Non-covalent inhibitors of thioredoxin glutathione reductase with schistosomicidal activity in vivo” (Nature Communications, 2023)
Values joined by “and” are separate entries in the source; they are usually repeats but may differ in a detail not shown here. Equal entries are not always repeated. Where two headings read alike, the source gives them in different places.

Target: T1, TGR (Schistosoma mansoni, UniProt Q962Y6)
T1 construct: made in house
T1 sequence (Q962Y6 1-598): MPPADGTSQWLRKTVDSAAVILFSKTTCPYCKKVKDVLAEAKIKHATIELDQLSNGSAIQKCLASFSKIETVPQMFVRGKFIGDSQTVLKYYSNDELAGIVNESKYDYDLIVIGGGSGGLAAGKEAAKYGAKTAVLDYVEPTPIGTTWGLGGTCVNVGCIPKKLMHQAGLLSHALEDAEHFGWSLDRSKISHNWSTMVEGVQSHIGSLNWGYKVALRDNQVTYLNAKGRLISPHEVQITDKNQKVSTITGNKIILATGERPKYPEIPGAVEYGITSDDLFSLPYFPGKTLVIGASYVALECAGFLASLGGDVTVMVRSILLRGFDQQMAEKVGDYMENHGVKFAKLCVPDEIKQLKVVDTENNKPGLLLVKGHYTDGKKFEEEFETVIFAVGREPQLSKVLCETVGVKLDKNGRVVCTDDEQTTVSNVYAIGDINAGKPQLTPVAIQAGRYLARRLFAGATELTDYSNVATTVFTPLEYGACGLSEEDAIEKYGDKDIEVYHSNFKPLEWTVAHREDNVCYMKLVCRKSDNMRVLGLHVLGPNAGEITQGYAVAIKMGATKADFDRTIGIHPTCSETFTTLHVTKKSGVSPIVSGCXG
Type: biochemical, S. mansoni
Settings: for mode of inhibition (NADPH varied): steady state
Experimental: Master mixes with varying concentrations of NADPH were made, each with 2 nM TGR in reaction buffer. Inhibitor (2 µl) was added to a 96 well microplate in triplicate for each NADPH and inhibitor concentration, and 192 µl of the master buffer was added to each well. The reaction incubated for 15 min and 6 µl of 50 mM DTNB was added to each well. The kinetic rate was measured at A412 for 5 min.

[1] = inhibitor 3 µM, NADPH 3 (unit not given)
[2] = inhibitor 3 µM, NADPH 10 (unit not given)
[3] = inhibitor 3 µM, NADPH 30 (unit not given)
[4] = inhibitor 3 µM, NADPH 100 (unit not given)
[5] = inhibitor 3 µM, NADPH 300 (unit not given)
[6] = inhibitor 10 µM, NADPH 3 (unit not given)
[7] = inhibitor 10 µM, NADPH 10 (unit not given)
[8] = inhibitor 10 µM, NADPH 30 (unit not given)
[9] = inhibitor 10 µM, NADPH 100 (unit not given)
[10] = inhibitor 10 µM, NADPH 300 (unit not given)
[11] = inhibitor 30 µM, NADPH 3 (unit not given)
[12] = inhibitor 30 µM, NADPH 10 (unit not given)
[13] = inhibitor 30 µM, NADPH 30 (unit not given)
[14] = inhibitor 30 µM, NADPH 100 (unit not given)
[15] = inhibitor 30 µM, NADPH 300 (unit not given)
[16] = inhibitor 0.6 µM, NADPH 10 (unit not given)
[17] = inhibitor 0.6 µM, NADPH 30 (unit not given)
[18] = inhibitor 0.6 µM, NADPH 100 (unit not given)
[19] = inhibitor 0.6 µM, NADPH 300 (unit not given)
[20] = inhibitor 1 µM, NADPH 5 (unit not given)
[21] = inhibitor 1 µM, NADPH 10 (unit not given)
[22] = inhibitor 1 µM, NADPH 30 (unit not given)
[23] = inhibitor 1 µM, NADPH 100 (unit not given)
[24] = inhibitor 3 µM, NADPH 5 (unit not given)

SMILES	Vmax (10 µM fast inhibitor)	Vmax (30 µM fast inhibitor)	Rate, single replicate [2]	avg rate [2]	Rate, single replicate [3]	avg rate [3]	Rate, single replicate [4]	avg rate [4]	Rate, single replicate [7]	avg rate [7]	Rate, single replicate [8]	avg rate [8]	Rate, single replicate [9]	avg rate [9]	Rate, single replicate [10]	avg rate [10]	Rate, single replicate [12]	avg rate [12]	Rate, single replicate [13]	mode of inhibition (NADPH varied)	also measured
Cc1oc(C2CCCCC2)nc1C(=O)N[C@@H]1C[C@@H]2C[C@H]([C@H]1C)C2(C)C [Compound 7]	0.023 ± 0.0006 ΔA412/min	0.005 ± 0.0004 ΔA412/min	0.01865 and 0.01872 and 0.01883	0.01873	0.02703 and 0.02752 and 0.02778	0.02744	0.03299 and 0.03283 and 0.0326	0.03281	0.014 and 0.01379 and 0.01325	0.01368	0.01713 and 0.02008	0.01811	0.02098 and 0.02124 and 0.02207	0.02143	0.009276 and 0.01989 and 0.01984	0.01634	0.004132 and 0.003931 and 0.003739	0.003934	0.004888 and 0.004427 and 0.004285	uncompetitive inhibition	Vmax (3 µM fast inhibitor): 0.037 ± 0.0031 ΔA412/min; Rate, single replicate [1]: 0.004865 and 0.004625 and 0.005262; avg rate [1]: 0.004917; Rate, single replicate [5]: 0.02949 and 0.03026 and 0.03016; avg rate [5]: 0.02997; Rate, single replicate [6]: 0.006166 and 0.006168 and 0.006055; avg rate [6]: 0.00613; Rate, single replicate [11]: 0.002823 and 0.003641; avg rate [11]: 0.003232; avg rate [13]: 0.004533; Rate, single replicate [14]: 0.005567 and 0.005953 and 0.005104; avg rate [14]: 0.005541; Rate, single replicate [15]: 0.006433 and 0.00613 and 0.007161; avg rate [15]: 0.006575; mode of inhibition (NADPH varied) (listed as 7 (9VP108)): uncompetitive behavior
C[C@@H]1[C@H]2C[C@@H](C[C@H]1NCc1nc3ccccc3n1C1CCCCCC1)C2(C)C [Compound 8]	0.0091 ± 0.0007 ΔA412/min	0.0067 ± 7E-5 ΔA412/min							0.007669 and 0.006838 and 0.009131	0.007879	0.005991 and 0.006991 and 0.01256	0.008514	0.006895 and 0.007479 and 0.009519	0.007964	0.01018 and 0.009394 and 0.01058	0.01005	0.00609 and 0.005955 and 0.006026	0.006024	0.006205 and 0.005206 and 0.007748	uncompetitive inhibition	Vmax (0.6 µM fast inhibitor): 0.05 ± 0.0017 ΔA412/min; Rate, single replicate [16]: 0.02362 and 0.02203 and 0.02232; avg rate [16]: 0.02266; Rate, single replicate [17]: 0.03949 and 0.03661 and 0.03778; avg rate [17]: 0.03796; Rate, single replicate [18]: 0.04159 and 0.0438 and 0.04407; avg rate [18]: 0.04315; Rate, single replicate [19]: 0.04835 and 0.04882 and 0.0495; avg rate [19]: 0.04889; avg rate [13]: 0.006386; Rate, single replicate [14]: 0.006944 and 0.006279 and 0.006539; avg rate [14]: 0.006587; Rate, single replicate [15]: 0.005974 and 0.006732 and 0.007751; avg rate [15]: 0.006819; mode of inhibition (NADPH varied) (listed as 8 (9VP173)): uncompetitive behavior
CC1C(NCc2cn(C3OCC(O)C(O)C3O)c3ccccc23)CC2CC1C2(C)C (stereo not shown) [Compound 9]	0.012 ± 0.00012 ΔA412/min	0.0056 ± 0.00043 ΔA412/min	0.003704 and 0.003359 and 0.003645	0.003569	0.005584	0.02094	0.004192 and 0.005 and 0.004489	0.00456	0.001061 and 0.0007127 and 0.0008019		0.0004565 and 0.000593		0.0001918 and 0.000912 and 1.594e-5							noncompetitive inhibition	Vmax (60 µM fast inhibitor): 0.0033 ± 0.00024 ΔA412/min; Rate, single replicate [20]: 0.004595 and 0.004128 and 0.004463; avg rate [20]: 0.004395; Rate, single replicate [21]: 0.005356 and 0.005454 and 0.005186; avg rate [21]: 0.005332; Rate, single replicate [22]: 0.00852 and 0.006935; avg rate [22]: 0.007727; Rate, single replicate [23]: 0.008379 and 0.007686 and 0.007654; avg rate [23]: 0.007906; Rate, single replicate [24]: 0.002898 and 0.002979 and 0.003645; avg rate [24]: 0.003174; Rate, single replicate (inhibitor 10 µM, NADPH 5 (unit not given)): 0.00023 and 0.001097 and 0.0005855
